Assays:
[1] = tested on: markers of inflammation in sputum; test: Markers of inflammation in induced sputum; format: in vivo, human; conditions: geometric mean (%CV); for α-2-macroglobulin in sputum, post-baseline: mean of Days 20, 26 and 32
Protocol: (§1) Induced sputum was collected pre-dose on Day 1 of each treatment period (for the first treatment period, the sample could be collected up to 10 days prior to Day 1), and 2 h post-dose on Days 20, 26 and 32 (see the Additional file 1 for further detail on sputum and blood analysis methods). Blood samples were taken pre-dose on Day 1, and pre-dose and at 30 min, and 1, 1.5, 2, 3, 4, 6, 8 and 12 h post-dose on Day 32. Other pre-dose assessments on Days 1 and 32 were spirometry (forced expiratory volume in 1 s [FEV1] and forced vital capacity [FVC]), forced oscillometry, and COPD Assessment Test (CAT), with Baseline Dyspnea Index recorded on Day 1 and Transition Dyspnea Index (TDI) on Day 32. Central and peripheral airways mechanics were assessed using forced oscillometry, with the following values determined: inspiratory and expiratory resistance (at 5 and 19 Hz), inspiratory and expiratory reactance, tidal expiratory flow limitation and the percentage of flow limited breaths.
A patient had to have a minimum of one acceptable sputum sample on Day 20, 26 or 32 to be included in the sputum biomarker evaluation for that treatment period, with the available cell count and biomarker data averaged for each patient. The mean change from baseline (pre-dose on Day 1 of each treatment period) was then compared between treatments using an analysis of covariance (ANCOVA) that included treatment, patient and period as fixed effects, and baseline values as covariate. The mean change from baseline to Day 32 for biomarkers in blood were analysed using the same model as for sputum data. All data were log-transformed before analysis, and the results are presented as ratio of geometric means.
Effect of CHF6001 on inflammatory biomarkers – Additional file 1 […]
Analysis of biomarkers and CHF6001 concentration in sputum
Sputum samples were collected by sputum induction, with patients breathing in nebuli sed hypertonic saline at increasing concentrations (3%, then 4% and finally 5%) while wearing a nose clip. Sputum plugs were isolated, processed by centrifugation and analysed to determine inflammatory cell counts (with total cell counts performed by each s ite’s local laboratory and differential counts at a central laboratory), as follows.
All solid or dense-looking material was collected from the clear salivary fluid into a stainless steel Petri dish lid. Sputum plugs were then gathered and condensed into one mass. After cleaning the Petri dish, cold Dulbecco's Phosphate -Buffered Saline equal to eight times the weight of the sputum plug was added, then dispersed , mixed and vortexed for 15 sec, before gently agitating on a rolling mixer or rocker for 15 min at room temperature. The resulting mixture was centrifuged at 790 g for 10 min at 4C. A volume of the supernatant equal to four times the weight of the sputum plug was removed and again centrifuged at 1500 g for 10 min at 4C. The clarified supernatant was divided into four equal aliquots, which were shipped in an upright position at –80C to a central laboratory for biomarker assessment. Levels of biomarkers were assessed as follows:
• α-2-macroglobulin: Meso Scale Diagnostics ELISA method .
• Interleukin (IL) 6 and 1β, C-X-C motif chemokine ligand 8 (CXCL8) and tumour necrosis factor (TNF) α: Meso Scale Diagnostics Pro-inflammatory v-PLEX Plus kit.
• Leukotriene B4: High pressure liquid chromatography with tandem mass spectroscopy (HPLC-MS/MS).
• Myeloperoxidase (MPO): Meso Scale Diagnostics MPO v-PLEX kit.
• Neutrophil elastase (NE): Luminex MAGPIX System Human Sepsis Magnetic Bead […]
• Monocyte chemotactic protein (MCP) 1 (also known as C-C motif chemokine ligand [CCL] 2) and macrophage inflammatory protein (MIP) 1β (also known as CCL4):
Meso Scale Diagnostics Chemokine v-PLEX Plus kit.
• Matrix metalloproteinase (MMP) 9: Sandwich Immunoassay, using PheraSTAR Plate […]
• Total protein: Pierce BCA protein assay.
Validation procedures followed those outlined in the “Guideline on Bioanalytical Method […]

[2] = tested on: patients with COPD; test: Spirometry and symptoms (FEV1, FVC, CAT, TDI); format: in vivo, human; conditions: for TDI, adjusted mean difference vs placebo (95% CI): Day 32; for CAT, adjusted mean difference vs placebo (95% CI) / Pre-dose FEV1, adjusted mean difference vs placebo (95% CI) / Pre-dose FVC, adjusted mean difference vs placebo (95% CI): change from baseline to Day 32
Protocol: as §1
The mean changes from baseline to Day 32 for lung function, CAT and TDI were analysed using similar methodology to sputum biomarkers, but were not log-transformed. […] The sputum concentration of CHF6001 was also evaluated at 2 h post-dose, using the mean of all values measured on Days 20, 26 and 32. Pharmacokinetic variables were summarised using geometric means and coefficients of variation, except for Tmax,ss, which is presented as median (range).

SMILES: CS(=O)(=O)Nc1ccc(C(=O)O[C@@H](Cc2c(Cl)c[n+]([O-])cc2Cl)c2ccc(OC(F)F)c(OCC3CC3)c2)cc1OCC1CC1 [CHF6001]
- C-X-C motif chemokine ligand 8 in sputum, post-baseline ([1]; 800 µg BID): 1828.97 (140.2) pg/mL
- Interleukin 1β in sputum, post-baseline ([1]; 800 µg BID): 13.6127 (599.5) pg/mL
- Interleukin 6 in sputum, post-baseline ([1]; 800 µg BID): 48.7856 (108.7) pg/mL
- Leukotriene B4 in sputum, post-baseline ([1]; 800 µg BID): 872.363 (135.0) pg/mL
- Macrophage inflammatory protein 1β in sputum, post-baseline ([1]; 800 µg BID): 68.2963 (153.5) pg/mL
- Matrix metalloproteinase 9 in sputum, post-baseline ([1]; 800 µg BID): 175.9824 (292.9) ng/mL
- Monocyte chemotactic protein-1 in sputum, post-baseline ([1]; 800 µg BID): 136.8746 (89.9) pg/mL
- Myeloperoxidase in sputum, post-baseline ([1]; 800 µg BID): 476,409.369 (720.8) pg/mL
- Neutrophil elastase in sputum, post-baseline ([1]; 800 µg BID): 82,640.61 (281.5) pg/mL
- Total protein in sputum, post-baseline ([1]; 800 µg BID): 320.329 (100.5) µg/mL
- Tumour necrosis factor α in sputum, post-baseline ([1]; 800 µg BID): 1.595 (265.2) pg/mL
- α-2-macroglobulin in sputum, post-baseline ([1]; 800 µg BID): 247.464 (233.4) ng/mL
- C-X-C motif chemokine ligand 8 in sputum, post-baseline ([1]; 1600 µg BID): 2104.09 (127.3) pg/mL
- Interleukin 1β in sputum, post-baseline ([1]; 1600 µg BID): 13.2876 (377.1) pg/mL
- Interleukin 6 in sputum, post-baseline ([1]; 1600 µg BID): 55.8291 (107.5) pg/mL
- Leukotriene B4 in sputum, post-baseline ([1]; 1600 µg BID): 678.965 (274.2) pg/mL
- Macrophage inflammatory protein 1β in sputum, post-baseline ([1]; 1600 µg BID): 60.8680 (139.7) pg/mL
- Matrix metalloproteinase 9 in sputum, post-baseline ([1]; 1600 µg BID): 176.3384 (249.4) ng/mL
- Monocyte chemotactic protein-1 in sputum, post-baseline ([1]; 1600 µg BID): 152.5465 (108.2) pg/mL
- Myeloperoxidase in sputum, post-baseline ([1]; 1600 µg BID): 494,342.192 (536.6) pg/mL
- Neutrophil elastase in sputum, post-baseline ([1]; 1600 µg BID): 84,470.09 (238.7) pg/mL
- Total protein in sputum, post-baseline ([1]; 1600 µg BID): 327.176 (102.5) µg/mL
- Tumour necrosis factor α in sputum, post-baseline ([1]; 1600 µg BID): 1.687 (342.0) pg/mL
- α-2-macroglobulin in sputum, post-baseline ([1]; 1600 µg BID): 247.877 (270.6) ng/mL
- TDI, adjusted mean difference vs placebo (95% CI) ([2]; 800 µg BID): 0.3 (–0.1 to 0.8)
- CAT, adjusted mean difference vs placebo (95% CI) ([2]; 800 µg BID): –0.3 (–1.4 to 0.8)
- Pre-dose FEV1, adjusted mean difference vs placebo (95% CI) ([2]; 800 µg BID): 13 (–26 to 52) mL
- Pre-dose FVC, adjusted mean difference vs placebo (95% CI) ([2]; 800 µg BID): 25 (–58 to 109) mL
- TDI, adjusted mean difference vs placebo (95% CI) ([2]; 1600 µg BID): –0.1 (–0.6 to 0.4)
- CAT, adjusted mean difference vs placebo (95% CI) ([2]; 1600 µg BID): –0.3 (–1.3 to 0.8)
- Pre-dose FEV1, adjusted mean difference vs placebo (95% CI) ([2]; 1600 µg BID): –35 (–74 to 4) mL
- Pre-dose FVC, adjusted mean difference vs placebo (95% CI) ([2]; 1600 µg BID): –26 (–109 to 58) mL
- Lung function (FEV1 and FVC) or symptoms vs placebo ([2]; either dose (800 or 1600 μg BID)): Neither CHF6001 dose differed from placebo

Source: paper PMC6688371, “Effect of the inhaled PDE4 inhibitor CHF6001 on biomarkers of inflammation in COPD” (Respiratory Research, 2019)
